# Entries after “also recorded” stand apart in the source; their conditions may differ.
# What was measured:
# [1] = mouse tissues; FIGS. 1-5 of US 2013/0064768 A1; cited from earlier work
# [2] = in vivo; cited from earlier work
# [3] = Time course of tracer concentration to steady state (FIG. 4, FIG. 11); type: in vivo, domestic swine
# From the text: Applicants use a few administration methods including a constant infusion, a pulse or bolus injection or a combination of a constant infusion a pulse or bolus injection. To date, most of Applicants work has used the kinetic approach because it carries the complete information available from our measurements. By analyzing the kinetic data (concentration vs time), Applicants can infer the steady state based on the ratio of the tissue concentration to the plasma concentration. […] The addition of the pulse or bolus injection to the constant infusion can shorten the time needed to impose the steady state for TPP^+. In this case both the plasma and myocardial concentrations become constant after about 90 minutes. The two color pictures are from studies in the same pig but measured on different days, one using constant infusion and the other the kinetic protocol. Note the excellent agreement between the two methods.
# [4] = Arterial and venous blood sampling of 18F-TPP+, whole blood to plasma concentration ratio; type: in vivo, domestic swine
# Protocol: Pigs were fasted 12 hours prior to induction of anesthesia, sedated with 4.4 mg/kg Telazol, placed on 5% masked isoflurane, intubated, maintained with 1.5% isoflurane and mechanically ventilated. Vital signs were monitored continuously. Vascular access was obtained via the femoral veins for injection of PET radiotracer and iodinated contrast media. An arterio-venous shunt was placed in the left femoral artery for blood withdrawal.
# Arterial blood sampling of ^18F-TPP^+ were drawn every 10 seconds for the first 3 minutes, then at 1 minute intervals for 5 minutes, and at increasing intervals until 120 minutes post injection. In two studies, venous several blood samples were also drawn at 5, 10, 15, 30, 60 and 90 minutes for comparison with arterial samples. All blood samples were centrifuged to determine plasma and red cell concentration histories. Concentration ratios of whole blood to plasma were computed.
# [5] = Dynamic PET/CT with Logan plot, parametric map of 18F-TPP+ volume of distribution Vd; type: in vivo, domestic swine; settings: pig with experimental tissue injury in LAD territory, FIG. 8
# Protocol: The study cohort consisted of n=9 domestic swine which were divided into two groups, control (n=6) and tissue injury (scar) (n=3). […] Pigs were housed and maintained under the supervision of the Massachusetts General Hospital Animal Care and Use Committee. Studies were conducted serially, one pig at a time, from August 2014 till October 2015. The weight of the pigs at scan averaged 53.1 kg with a range from 30-92 kg.
# Pigs were fasted 12 hours prior to induction of anesthesia, sedated with 4.4 mg/kg Telazol, placed on 5% masked isoflurane, intubated, maintained with 1.5% isoflurane and mechanically ventilated. Vital signs were monitored continuously. Vascular access was obtained via the femoral veins for injection of PET radiotracer and iodinated contrast media. […]
# PET Scans were performed on a Siemens Biograph PET/CT scanner: A planar x-ray topogram was performed to define the field of view (FOY) with the heart centered for computed tomography (CT), CT-angiogram (CTA) and PET acquisitions. […] Each frame was reconstructed using a filtered back projection algorithm to yield a radioactivity concentration map in units of Bq/cc with 83 slices and a voxel size of 2.14×2.14×3 mm^3.
# Dynamic PET data were analyzed using a Logan plot (Logan, Fowler et al. 1990) to produce parametric images of the ^18F-TPP^+ volume of distribution, Vd and reoriented into the short axis projection. […]
# [6] = Comparison of myocardial kinetics of TPP+ and Flurpiridaz (FIG. 4); type: in vivo
# From the text: FIG. 4 is a graphical illustration depicting comparison of myocardial kinetics of TPP^| and Flurpiridaz. The black line (the top line) depicts Flurpiridaz kinetics; whereas, the red line (the bottom line) depicts TPP^+ kinetics. Concentrations are normalized to remove the effect of injected radioactivity dose.
# To provide a direct observation Applicants compared the kinetics of ^18F-TPP^+ to those of ^18F-Flurppiridaz, a tracer with high first pass capillary extraction (E>0.9). […] Thus it is unlikely that TPP^+ can provide useful myocardial flow measurements, per se.
structure (smiles),measurement,setting,value
CCCCCCCCCC[P+](c1ccccc1)(c1ccccc1)c1ccccc1 [DecylTPP],reaching a steady state within an hour,[1],"none of MitoQ, DecylTPP, FluroUndecylTPP and TPMP reach a steady state"
COC1=C(OC)C(=O)C(CCCCCCCCCC[P+](c2ccccc2)(c2ccccc2)c2ccccc2)=C(C)C1=O [MitoQ],reaching a steady state within an hour,[1],"none of MitoQ, DecylTPP, FluroUndecylTPP and TPMP reach a steady state"
"C[P+](c1ccccc1)(c1ccccc1)c1ccccc1 [TPMP, triphenylmethylphosphonium^+]",reaching a steady state within an hour,[1],"none of MitoQ, DecylTPP, FluroUndecylTPP and TPMP reach a steady state"
CC(C)(C)n1ncc(OCc2ccc(COCCF)cc2)c(Cl)c1=O [^18F-Flurppiridaz],first pass capillary extraction E,[2],> 0.9
"[18F]c1ccc([P+](c2ccccc2)(c2ccccc2)c2ccccc2)cc1 [^18F-TPP^+, ^18F-tetraphenylphosphonium]",time remaining in the steady state,[3]; in a subject,at least 2 hours
same,time to reach a steady state in subject / tissue,"[3]; in vivo tissue, FIG. 4 and FIG. 11",within minutes; also recorded: within two hours
same,time after which plasma and myocardial concentrations become constant,"[3]; intravenous pulse of TPP+ followed by constant infusion, FIG. 11",about 90 minutes
same,concentration ratio for whole blood versus plasma,[4]; constant value after injection,0.95
same,time after injection at which whole blood versus plasma ratio became constant,[4]; in vivo,about 10 minutes
same,time the whole blood versus plasma ratio remained constant (duration of measurement),[4]; in vivo,120 min
same,agreement of venous and arterial samples,[4]; samples obtained at least 10 minutes after injection,good agreement
same,volume of distribution Vd,[5]; areas in other vascular territories,25 mL/cc
same,volume of distribution Vd,[5]; core of the injury,2 mL/cc
same,accumulation in the myocardium,[6],accumulates slowly in the myocardium
same,extraction compared with 18F-Flurppiridaz,[6]; myocardium,much lower
same,kinetics compared with 18F-Flurppiridaz,[6]; myocardium,much slower kinetics
